Entries after “also recorded” stand apart in the source; their conditions may differ. Where a name gives a salt, the structure may show the parent alone. Marks after values point to notes of the source that are not given here.
What was measured:
male ICR mice [1] = experiment: Hot-plate paw-withdrawal test after popliteal (peri-sciatic nerve block) injection; assay type: in vivo; conditions: for local anesthesia of the drug alone in the presence of 1:200,000 epinephrine: 0.125% bupivacaine or ibutilide (3.9 nmoles), each with 1:200,000 epinephrine; for local anesthesia of the drug alone (paw-withdrawal latency): 0.5% bupivacaine or ibutilide (3.9 nmoles) with vehicle, 60-min time-course, or bupivacaine dose-response at 10-min; for Potency ratio (95% C.L.): 10-min; for % Bupivacaine ED50 (95% C.L.): tested 10-min later
Experimental: Animals: Male ICR mice (25-30 gm) were obtained from Harlan Sprague Dawley. The mice were housed in groups of four to six and kept on a 12-h light/12-h dark cycle. Mice were tested during the light cycle; and the original groupings were maintained (i.e., mice were not recombined into new groups or isolated) to decrease infighting and consequent stress that could confound the results. Behavioral Procedures: Following the procedure of Leszczynska and Kau (1992), each mouse was placed on a ¼inch wire mesh screen, which was then inverted; a mouse with no motor defects walks in a characteristic circular pattern, grasping the mesh with each paw and then letting go. Mice that could not walk normally at baseline were not used for testing. […] Baseline paw withdrawal latencies ranged between 2- to 3-sec. After collecting baseline data, the mice were injected with vehicle, ibutilide, or bupivacaine mixed with vehicle or ibutilide. At the appropriate times, motor scores and test paw withdrawal latencies were obtained. A 20-sec cut-off was employed to prevent tissue damage on the hot-plate test. Injection Procedures: Each mouse was injected with drug solution using a 30 gauge,½ inch needle attached to a 1 ml syringe (needle and syringe from Becton Dickinson). The animals were gently restrained, while the limb to be injected was extended to expose the popliteal space, which is behind the knee of the mouse. The needle was inserted in the popliteal space, and 0.05 ml of drug solutions injected. The nerve bundle of the sciatic nerve passes through the popliteal space. Thus, the limb and paw distal to the injection is effectively anesthetized. The motor and sensory tests were then repeated at 5-min intervals for a 1-h period. […] Some mice could place their paw on the screen, but could not grasp the screen with their digits; this was determined to be an intermediate phase. The motor block was determined to be resolved when the mouse could walk on the inverted screen using both the leg and paw. Sensory blockade was assessed by measuring in seconds, the time the bupivacaine-injected paw remained on hot-plate surface before withdrawing it. The test was terminated if the cut-off of 20-sec occurred during the test procedure. For time-course studies, two-factor repeated measures analysis of variance followed by the post hoc Tukey's test was used to assess for significant increases in paw withdrawal latencies compared to baseline. In addition, the effect of ibutilide to enhance bupivacaine was assessed, and compared with the appropriate controls at each time point during the 60-min test period. For dose-response curves, the data was converted to the percentage of maximum possible effect, which was calculated as: % MPE=[(Test−Baseline)/(20 −Baseline)]×100. […] The absence of overlapping confidence limits was used to indicate significant differences in ED50 values between dose-response curves. Potency-ratio values with 95% confidence limits were calculated by the method of Colquhoun (1971). Drugs: Sterile isotonic saline was used to dissolve and dilute drug solutions. Bupivacaine HCl was purchased from the MCV Hospitals Pharmacy (Winthrop Pharmaceuticals, NY, N.Y. ). To assure consistency, the same vial of bupivacaine was used for all injections involving bupivicaine. The concentration was varied by either diluting with normal saline, or by freeze-drying and then reconstituting the material with normal saline. The same vial of bupivacaine with 1:200,000 epinephrine was used for the second set of experiments. The epinephrine dose was adjusted by adding epinephrine to maintain a constant concentration of epinephrine 2.76×10^−5 M. Ibutilide fumarate was purchased from the MCV Hospitals Pharmacy (Pharmacia & Upjohn Company of Kalamazoo, Mich.). The concentration of ibutilide was held constant at 3.9 nanomoles (nmoles) per mouse. Enhancement of Bupivacaine HCl with Ibutilide. Experiments were conducted to determine whether ibutilide would enhance the local anesthetic effects of bupivacaine. […]

male ICR mice [2] = experiment: Radiant heat tail-flick test after subcutaneous infiltration of the tail (infiltration anesthesia); assay type: in vivo; conditions: for % Bupivacaine ED50 (95% C.L.): bupivacaine mixed with vehicle or sotalol (10 nmoles), infiltrated in mouse tail
Experimental: Methods of handling mice. Male ICR mice (Harlan Laboratories, Indianapolis, Ind.) weighing 27.0±0.4 g were housed 6 to a cage in animal care quarters maintained at 22±2 ° C. on a 12-h light-dark cycle. Food and water were available ad libitum. The mice were brought to a test room (22±2° C. , 12-h light-dark cycle), marked for identification and allowed 16-h to recover from transport and handling. The Institutional Animal Care and Use Committee at the Medical College of Virginia Campus of Virginia Commonwealth University approved all the procedures in this study.
The tail-flick test. The tail-flick test used to assess for infiltration anesthesia was developed by D'Amour and Smith (1941) and modified by Dewey et al (1970). The tail-flick device is designed to focus a light beam onto the site infiltrated with local anesthetic, without exposing non-injected tissue to the noxious radiant heat stimulus. The intensity was adjusted to yield baseline latencies of between 2- to 4-sec. A single baseline latency was obtained approximately 15-min before the mice were injected with drug. A 10-sec cut-off was used to prevent any potential tissue damage. In experiments testing for potential underlying infiltration anesthesia that was not observed with the higher heat stimulus, the intensity was reduced to yield baseline latencies of about 6-sec. A 12-sec cut-off was used in these experiments.
Subcutaneous infiltration of bupivacaine. Before infiltration of vehicle or drug, baseline tail-flick latencies were obtained by exposing the tail to noxious radiant heat at the site to be infiltrated with drug. The baseline average over the entire study was 3.1±0.1 sec. The mice were then restrained to allow us unencumbered access to the tail. A 26-gauge ⅝ needle was inserted approximately 1.0 to 1.3 cm longitudinally under the skin in the subcutaneous space in the dorsal aspect of the tail. The needle was attached to a 1-ml syringe (Becton Dickinson, Franklin Lakes, N.J. ) pre-filled with drug solution. A […] volume of drug solution was infiltrated, and the needle was left in place for 5-s to prevent leakage of injectate from the site after removing the needle. During injection, the solution dispersed around the circumference of the tail in a rostral-caudal direction of about 2- to 3-cm. A slight blanching of the skin that reversed within 1 to 2 min indicated the extent of the spread of solution. A non-toxic marking pen was used to mark the most rostral spread of solution. Tail-flick testing was conducted below the area marked on the tail. These methods are detailed in a previous report (Smith et al. 1997).
Experimental design. Sotalol was solubilized and then mixed with bupivacaine HCl for co-infiltration of the tail. The influence of increasing concentrations of sotalol on the ED50 dose of bupivacaine was also examined. Both baseline and test tail-flick latencies from each animal were converted into the percentage of maximum possible effect (% MPE) according to the method of Harris and Pierson (1964), which was calculated as: % MPE=[(test−baseline)/(10−baseline)]×100. The ordinate was % MPE, while the abscissa was expressed as the dose of sotalol. Complete bupivacaine dose-response curves were generated in the absence and presence of sotalol (10 nmole) for calculation of ED50 and potency ratio values. The ordinate was % MPE, while the abscissa was expressed as the % bupivacaine dose.
Statistical analyses: The Tail-Flick Latency (sec) values were analyzed with one factor ANOVA for experiments in which different concentrations of sotalol were tested with an ED50 dose of bupivacaine. A statistically significant F-value led to post hoc comparisons using the Tukey's test. The % MPE values for dose-response curves were analyzed in the following manner. ED50 values were calculated using least squares linear regression analysis of % MPE values followed by calculation of 95% confidence limits (C.L.) according to the method of Bliss (1967). […]

[3] = bupivacaine containing 1:200,000 epinephrine mixed with vehicle or ibutilide (3.9 nmoles), popliteal space, hot-plate
[4] = hot-plate 56° C., bupivacaine mixed with vehicle or ibutilide (3.9 nmoles), injected in popliteal space, no epinephrine

CCCCCCCN(CC)CCCC(O)c1ccc(NS(C)(=O)=O)cc1 (racemic) [Ibutilide, (±) N-[4-[4-(Ethylheptylamino)-1-hydroxybutyl]phenyl]methanesulfonamide (E)-2-butenedioate (2:1) salt]
local anesthesia of the drug alone in the presence of 1:200,000 epinephrine (male ICR mice [1]; 1-h time-course): failed to elicit any anesthetic effects | local anesthesia of the drug alone (paw-withdrawal latency) (male ICR mice [1]; no epinephrine): no anesthesia; also recorded: inactive | Potency ratio (95% C.L.) (male ICR mice [1]; bupivacaine + 1:200,000 epinephrine + ibutilide (3.9 nmoles) vs vehicle control, hot-plate): 6.8 (4.3 to 12.7)** | Potency ratio (95% C.L.) (male ICR mice [1]; bupivacaine + ibutilide (3.9 nmoles) vs bupivacaine + vehicle, hot-plate, no epinephrine): 2.8 (1.9 to 3.8)** | % Bupivacaine ED50 (95% C.L.) (male ICR mice [1]; [3]): 0.05% (0.04 to 0.06)** | % Bupivacaine ED50 (95% C.L.) (male ICR mice [1]; [4]): 0.24% (0.19 to 0.30)** | enhancement of the local anesthetic effects of 0.5% bupivacaine (male ICR mice [1]; ibutilide 3.9 nmoles mixed with 0.5% bupivacaine, 60-min time-course, no epinephrine): markedly enhanced; also recorded: significantly increased | duration of enhancement of the local anesthetic effects of 0.5% bupivacaine (male ICR mice [1]; ibutilide 3.9 nmoles mixed with 0.5% bupivacaine, tested every 5 min for 1-h): 35 min | enhancement of the amount (efficacy) of 0.125% bupivacaine + 1:200,000 epinephrine (male ICR mice [1]; ibutilide 3.9 nmoles, 1-h time-course): greatly increased | increase in relative potency of bupivacaine+1:200,000 epinephrine (male ICR mice [1]; in the presence of ibutilide (3.9 nmoles), hot-plate): 6.8 fold | increase in potency of bupivacaine (male ICR mice [1]; in the presence of ibutilide (3.9 nmoles), hot-plate, no epinephrine): 2.8 fold

CC(C)NCC(O)c1ccc(NS(C)(=O)=O)cc1.Cl (stereo not shown) [Sotalol, N-[4-[1-hydroxy-2-[(1-methylethyl)amino]ethyl]phenyl]methanesulfonamide monohydrochloride]
Potency ratio (95% C.L.) (male ICR mice [2]; bupivacaine + sotalol (10 nmoles) vs bupivacaine + vehicle, tail-flick, 30-min): 2.7 (1.6 to 4.5) | % Bupivacaine ED50 (95% C.L.) (male ICR mice [2]; tail-flick 30-min later): 0.04% (0.03 to 0.06)** | increase in potency of bupivacaine (male ICR mice [2]; in the presence of sotalol (10 nmoles), tail-flick, 30-min): 2.7 fold | enhancement of the anesthetic effects of an ED50 dose of bupivacaine (0.12%) (male ICR mice [2]; increasing doses of sotalol co-infiltrated, tail-flick 30-min later): enhanced in a dose-dependent fashion | anesthetic effect of the drug alone (male ICR mice [2]; sotalol alone, tail infiltration, tail-flick 30-min later, monohydrochloride): inactive; also recorded: no anesthetic effects

CCCCN1CCCCC1C(=O)Nc1c(C)cccc1C (stereo not shown) [bupivacaine]
% Bupivacaine ED50 (95% C.L.) (male ICR mice [2]; tail-flick 30-min later): 0.11% (0.08 to 0.15) | local anesthesia of the drug alone in the presence of 1:200,000 epinephrine (male ICR mice [1]; 1-h time-course): elicited local anesthesia | local anesthesia of the drug alone (paw-withdrawal latency) (male ICR mice [1]; no epinephrine): mild level of anesthesia; also recorded: dose-dependent anesthesia | % Bupivacaine ED50 (95% C.L.) (male ICR mice [1]; [3]): 0.31% (0.22 to 0.44) | % Bupivacaine ED50 (95% C.L.) (male ICR mice [1]; [4]): 0.67% (0.59 to 0.77)

CNC[C@H](O)c1ccc(O)c(O)c1 [epinephrine]
effect of 1:200,000 epinephrine on the efficacy of 0.125% bupivacaine (male ICR mice [1]; time-course experiments, hot-plate): increased

Source: US20020161018A1, “Enhancement of the potency and efficacy of local anesthetics with ibutilide and other methanesulfonamide drugs” (priority 2001, published 2002)
